Values of other authors as cited in patent US20040076682A1, “Novel ophthalmic compositions” (priority 2001, published 2004).
In brackets after ≈: the same amount, converted by molar mass.

Test system: Streptococcus sp
Conditions: Streptococcus sp clinical isolate of ocular infections

For `CCn1cc(C(=O)O)c(=O)c2cc(F)c(N3CCNCC3)cc21` [norfloxacin], the MIC80 is listed as 12.5 µg/mL (≈ 39.1 µM).
